Laboratory results published in ChEMBL document CHEMBL1201862, “PubChem BioAssay data set” (2004).
Where “and” joins values, the source holds several entries; their conditions need not be identical. Identical values can stand only once.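 Cells were grown in 96-well plates and exposed to each compound for 48 hours at five concentrations; endpoints were interpolated linearly between bracketing concentrations, or set to the highest concentration if not reached. GI50 = concentration required for 50% inhibition of growth.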 Calls of active or inactive are those of the source. No stated cut-off is given here; in the data, active = GI50 up to about 1.1 µM and inactive = higher.

How the values were obtained:
Assay in all cases: inhibition of tumour cell growth, NCI panel, 48 h
[1] = test system: NCI-H23
[2] = test system: SR
[3] = test system: SK-MEL-28
[4] = test system: SF-268
[5] = test system: ACHN
[6] = test system: HCT-116
[7] = test system: UACC-62
[8] = test system: M14
[9] = test system: A498
[10] = test system: SK-MEL-2
[11] = test system: OVCAR-4
[12] = test system: SK-MEL-5
[13] = test system: COLO 205
[14] = test system: SK-OV-3
[15] = test system: A549
[16] = test system: HL-60
[17] = test system: LXFL 529
[18] = test system: HCT-15
[19] = test system: MDA-MB-231
[20] = test system: MDA-N

Measured: GI50

Cc1cc(N(CCC#N)CCC#N)ccc1/C=C1\N=C(c2cc([N+](=O)[O-])ccc2Cl)N(c2cccc(Cl)c2)C1=O
inactive: [1] > 100 µM | [2] 94.4 µM | [3] > 100 µM | [4] > 100 µM | [5] > 100 µM | [6] > 100 µM | [7] > 100 µM | [8] > 100 µM | [9] > 100 µM | [10] > 100 µM | [11] > 100 µM | [12] > 100 µM | [13] 87.7 µM | [14] > 100 µM | [15] > 100 µM | [16] > 100 µM | [17] > 100 µM
> 100 µM: [18]

Nc1nc(N)c(CCCCc2ccc([N+](=O)[O-])cc2)c(N)n1
6.65 µM: [18]
inactive: [1] 10.6 µM | [2] 10.6 µM | [19] > 100 µM | [4] > 50.4 µM | [5] 27.9 µM | [6] 3.93 µM | [7] 8.67 µM | [8] 31 µM | [9] > 100 µM | [10] > 100 µM | [11] > 100 µM | [12] 16.7 µM | [13] > 94 µM | [20] > 100 µM | [14] > 100 µM | [15] 7.29 µM | [16] 2.84 µM | [17] 47.8 µM

COC1/C(=C\C(=O)OC(C)(C)C)c2ccccc2N1C(C)=O (configuration not stated)
inactive: [1] > 100 µM | [2] 48 µM | [3] > 100 µM | [5] > 100 µM | [6] > 100 µM | [7] > 100 µM | [8] > 100 µM | [9] > 100 µM | [10] > 100 µM | [11] > 100 µM | [13] > 100 µM | [14] > 100 µM | [15] > 100 µM | [16] 36.2 µM | [17] > 100 µM
> 100 µM: [18]

Nc1ncnc2c1ncn2C1CC(OCc2ccccc2[N+](=O)[O-])C(CO)O1 (configuration not stated)
inactive: [1] 23 µM | [2] 10.8 µM | [3] 23.8 µM | [4] 28.2 µM | [5] 13.3 µM | [6] 17.4 µM | [8] 15.6 µM | [9] > 50 µM | [10] 22.4 µM | [11] 17.4 µM | [13] 9.2 µM | [14] 21.7 µM | [15] 21.7 µM | [16] 12.7 µM | [17] 13.6 µM
21.8 µM: [18]

CCOC(=O)CCn1ncc(Cl)c(Cl)c1=O
2.15 µM: [18]
inactive: [1] 2.27 µM | [2] 2.89 µM | [3] 2.65 µM | [4] 7.55 µM | [5] 17 µM | [6] 11.9 µM | [7] 6.3 µM | [8] 4.21 µM | [9] 22.7 µM | [10] 8.53 µM | [11] 1.54 µM | [12] 11.8 µM | [13] 9.23 µM | [14] 26.7 µM | [15] 15.6 µM | [16] 2.67 µM | [17] 3.84 µM

COc1ccc(OC)c(/C=C/[N+](=O)[O-])c1
3.37 µM and 2.75 µM: [18]
inactive: [1] 4.02 µM and 2.41 µM | [3] 2.01 µM and 3.48 µM | [19] 1.87 µM | [4] 3.01 µM and 4.54 µM | [5] 1.82 µM and 2.21 µM | [6] 1.85 µM and 3.13 µM | [8] 1.98 µM and 3.36 µM | [9] 3.92 µM and 3.94 µM | [10] 2.41 µM and 4.62 µM | [11] 4.31 µM and 2.8 µM | [12] 3.29 µM and 2.33 µM | [13] 2.04 µM and 3.15 µM | [20] 3.16 µM | [14] 5.53 µM and 4.7 µM | [15] 3.24 µM and 5.79 µM | [17] 1.91 µM

CSc1nnc2n1-c1ccccc1SCC2
inactive: [1] > 100 µM | [2] > 100 µM | [3] > 100 µM | [4] > 100 µM | [5] > 100 µM | [6] > 100 µM | [7] > 100 µM | [8] > 100 µM | [9] > 100 µM | [10] > 100 µM | [11] > 100 µM | [13] > 100 µM | [14] > 100 µM | [15] > 100 µM | [16] > 100 µM | [17] > 100 µM
> 100 µM: [18]

COc1nc(/C=N/NC(N)=S)nc(OC)n1
inactive: [1] > 100 µM | [2] 68.7 µM | [3] > 100 µM | [4] 61.7 µM | [5] 43.8 µM | [6] 64.4 µM | [7] 35.3 µM | [8] 55.1 µM | [9] 33.7 µM | [10] > 100 µM | [11] > 100 µM | [13] > 100 µM | [14] > 100 µM | [15] 56.6 µM | [16] 45.8 µM | [17] > 100 µM

NCCCC1NC(=O)/C(=C(O)/C=C/C2CCC[C@@H]2CC2SCCS2)C1=O (some centres not stated)
inactive: [1] > 100 µM | [2] 58.5 µM | [3] > 100 µM | [4] > 100 µM | [5] > 100 µM | [6] > 100 µM | [7] > 100 µM | [8] > 100 µM | [9] > 100 µM | [10] > 100 µM | [11] > 100 µM | [12] > 100 µM | [13] 37.2 µM | [14] > 100 µM | [15] > 100 µM | [16] 23.3 µM | [17] 75 µM

C1=Cc2nc1c(-c1ccccc1)c1nc(c(-c3ccccc3)c3ccc([nH]3)c(-c3ccccc3)c3ccc([nH]3)c2-c2ccccc2)C=C1 [TETRAPHENYLPORPHYRIN]
> 100 µM: [18]
inactive: [1] > 100 µM | [2] > 100 µM | [3] > 100 µM | [4] > 100 µM | [5] > 100 µM | [6] > 100 µM | [7] > 100 µM | [8] > 100 µM | [9] > 100 µM | [10] > 100 µM | [11] > 100 µM | [12] > 100 µM | [13] > 100 µM | [14] > 100 µM | [15] > 100 µM | [16] > 100 µM | [17] > 100 µM
